Several values for one entry are separate records, joined by “and”; a condition that tells them apart may be missing. Equal entries are not always repeated.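 Following 48 hours of exposure in 96-well plates, responses at five concentrations were used to interpolate endpoints linearly. The concentration for 50% growth inhibition is given as GI50. TGI: concentration producing complete growth inhibition.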
Test system: MDA-MB-468 breast
Assay: DTP human tumour cell line panel, 48 h

| Compound | GI50 | TGI |
| --- | --- | --- |
| CN(C)c1ccc(-c2ccc(-c3ccc(C(=N)N)cc3)s2)cc1 | 1.94 µM | 3.76 µM |
| C=C1C[C@@H]2CC[C@@]34C[C@H]5O[C@H]6[C@@H](O3)[C@H]3O[C@H](CC[C@@H]3O[C@H]6[C@@H]5O4)CC(=O)C[C@@H]3[C@@H](OC)[C@@H](C[C@H](O)CN)O[C@H]3C[C@H]3O[C@@H](CC[C@@H]1O2)C[C@@H](C)C3=C | < 0.01 µM | 0.0661 µM |
| COc1ccc(OC)c(Cn2cc3c(c2-c2ccccc2)CCc2cnoc2-3)c1 | 2.64 µM | 11.5 µM |
| CCOc1ccc(-c2nnc(C3CC(NC(=O)c4cccc5nccnc45)C3)n2-c2ccccc2F)nc1 (stereo not drawn) | 10 µM | 71.5 µM |
| COC(=O)C1(C)Cc2cc(OC(C)=O)c(OC(C)=O)cc2N1 (stereo not drawn) | 1.9 µM | 6.53 µM |
| Nc1ccc(/C=C/C(=O)NCc2cc3cc(-c4ccc(C(=O)N5CCC(F)(F)CC5)cc4)cc(-c4ccc(F)cc4)c3o2)cn1 | 22.6 µM | > 100 µM |
| O=C1OCC2=C1C(c1ccccc1)c1cc3c(cc1N2CCO)OCO3 (stereo not drawn) | 1.22 µM | 4.61 µM |
| CN(C)C(=O)O[C@H]1CN[C@H](C#Cc2cc3ncnc(Nc4ccc(OCc5cccc(F)c5)c(Cl)c4)c3s2)C1 | 0.595 µM | 5.11 µM |
| O=C(Nc1ccc(Cl)c(Cl)c1)NS(=O)(=O)c1cnccc1Oc1ccc(F)cc1 | 4.26 µM | > 100 µM |
| C=C1C(=O)O[C@H]2[C@H]1CC/C(COC(=O)NCC(C)c1ccc(CC(C)C)cc1)=C\CC[C@@]1(C)O[C@@H]21 (stereo partly drawn) | 0.656 µM | 1.84 µM |
| C=C1C(=O)O[C@H]2[C@H]1CC/C(C=Nc1c(N)cc(C(F)(F)F)cc1Br)=C\CC[C@@]1(C)O[C@@H]21 | 1.88 µM | 4.19 µM |
| Cn1cc(C2=C(c3cn(C4CCN(Cc5ccccn5)CC4)c4ccccc34)C(=O)NC2=O)c2ccccc21 | 2.08 µM | > 100 µM |
| CCCCn1c(-c2ccc(C(=O)O/N=C(\N)c3ccc4c(c3)OCO4)cc2)nc(-c2ccccc2)c1-c1ccccc1 | 3.83 µM | > 100 µM |
| C/C(=N\NC(=S)Nc1ccc(Br)cc1)c1cc2ccccc2oc1=O | 1.22 µM | 5.82 µM |
| O=C(N/N=C/c1ccccc1O)c1ccccc1 | 0.292 µM | > 100 µM |
| COc1ccc(C(=O)c2ccc([As]=O)cc2)cc1 (stereo not drawn) | 0.0692 µM | 0.242 µM |
| O=c1oc2ccc(I)cc2c(=O)n1-c1ccc(Cl)cc1F | 2.11 µM | 5.81 µM |
| CCC1=CC2CN(C1)Cc1c([nH]c3ccccc13)[C@@](C(=O)OC)(c1cc3c(cc1OC)N(C)[C@H]1[C@@](O)(C(=O)OC)[C@H](OC(C)=O)[C@]4(CC)C=CCN5CC[C@]31[C@@H]54)C2 (stereo partly drawn) | – | 21 µM |

| Compound | GI50 | TGI |
| --- | --- | --- |
| O=C1CCCCN1CCCCC#Cc1cccc(C#Cc2cccnc2)c1 | 10.2 µM | 28.5 µM |
| O=C(O)[C@@H](Cc1ccc2ccccc2c1)NC(=O)n1c2ccccc2c2ccccc21 | 1.9 µM | 7.17 µM |
| CCNC(=O)c1noc(-c2cc(C(C)C)c(O)cc2O)c1-c1ccc(CN2CCOCC2)cc1 | < 0.01 µM | 0.055 µM |
| C(=N\Nc1nnn(Cc2ccccc2)n1)/c1ccccc1 | 1.48 µM | 11.9 µM |
| CNC(=O)c1nn(C)c2c1C(C)(C)Cc1cnc(Nc3ccc(N4CCN(C)CC4)cc3)nc1-2 | 0.813 µM | > 4.2 µM |
| O=S(=O)(NCCCNc1nccc(-c2c(-c3ccc(F)cc3)nc3sccn23)n1)c1ccc2ccccc2c1 | 3.87 µM | > 100 µM |
| CN1/C(=C\C=C\C2=[N+](C)c3ccccc3C2(C)C)C(C)(C)c2ccccc21 | 0.0217 µM | 0.123 µM |
| O=C1NC(=O)c2c1c1c3ccccc3ccc1c1[nH]c3ccccc3c21 | 0.953 µM | 8.87 µM |
| O=S(=O)(CCCl)c1ccc(Cl)cc1 | 1.82 µM | 5.77 µM |
| Cc1ccc(-c2nc3nc(-c4ccc(F)cc4)nc(N4CCCNCC4)c3o2)cc1 | 1.58 µM | 3.18 µM |
| COc1cc(NCCCCCCCNC(C)C)c2nccc(C)c2c1 | 3.11 µM | 14.7 µM |
| CCCCCCCCCCCCCCCC[N+]1(C)CCOCC1 | 0.374 µM | 2.16 µM |
| COc1ccc(CN2C3CC2CN(c2ccc(-c4cc(OCC(C)(C)O)cn5ncc(C#N)c45)cn2)C3)cn1 | 8.09 µM | > 100 µM |
| CCc1c2c(nc3ccc(OC(=O)N4CCC(N5CCCCC5)CC4)cc13)-c1cc3c(c(=O)n1C2)COC(=O)[C@]3(O)CC | – | 1.79 µM and 1.51 µM and 5.77 µM |
| O=c1c(F)cn(Cc2ccccc2CCl)c(=O)n1Cc1ccccc1CCl | 0.684 µM | 2.27 µM |
| OC(c1cc2ccc(C(F)(F)F)cc2c2cc(C(F)(F)F)ccc12)C1CCCCN1 (stereo not drawn) | 1.6 µM | 3.09 µM |
| c1ccc2[nH]c(-c3ccc(Nc4nc(N5CCCCC5)nc(N5CCOCC5)n4)cc3)nc2c1 | 2.68 µM | 6.51 µM |
